Like-named read-outs stand apart in the source and are kept apart here.

In test [1] the test system is LOLSS: ryegrass including, Italian ryegrass (Lolium multiflorum), rigid ryegrass (Lolium rigidum), annual ryegrass (Lolium multiflorum subsp. Gaudini). The experiment in a line: Post-emergent Test III, herbicidal activity in wheat and barley. It is filed as in vivo. The note with it: probit analysis. As to the method:
(§1) Post-emergent Test III. Seeds of the desired test plant species were planted in Sun Gro MetroMix® 306 planting mixture, which typically has a pH of 6.0 to 6.8 and an organic matter content of about 30 percent, in plastic pots with a surface area of 103.2 square centimeters (cm^2). When required to ensure good germination and healthy plants, a fungicide treatment and/or other chemical or physical treatment was applied. The plants were grown for 7-36 days (d) in a greenhouse with an approximate 14 hour (h) photoperiod which was maintained at about 18° C. during the day and 17° C. during the night. Nutrients and water were added on a regular basis and supplemental lighting was provided with overhead metal halide 1000-Watt lamps as necessary. The plants were employed for testing when they reached the second or third true leaf stage.
(§2) A weighed amount, determined by the highest rate to be tested, of each test compound was placed in a 25 mL glass vial and was dissolved in 4 mL of a 97:3 v/v mixture of acetone and DMSO to obtain concentrated stock solutions. […] The concentrated stock solutions obtained were diluted with 20 mL of an aqueous mixture containing acetone, water, isopropyl alcohol, DMSO, Agri-Dex crop oil concentrate, and X-77 surfactant in a 48:39:10:1.5:1.5:0.02 v/v ratio to obtain spray solutions containing the highest application rates. Additional application rates were obtained by serial dilution of 12 mL of the high rate solution into a solution containing 2 mL of 97:3 v/v mixture of acetone and DMSO and 10 mL of an aqueous mixture containing acetone, water, isopropyl alcohol, DMSO, Agri-Dex crop oil concentrate, and X-77 surfactant in a 48:39:10:1.5:1.5:0.02 v/v ratio to obtain ½×, ¼×, ⅛× and 1/16× rates of the high rate. Compound requirements are based upon a 12 mL application volume at a rate of 187 liters per hectare (L/ha). Formulated compounds were applied to the plant material with an overhead Mandel track sprayer equipped with 8002E nozzles calibrated to deliver 187 L/ha over an application area of 0.503 square meters at a spray height of 18 inches (43 cm) above the average plant canopy height. Control plants were sprayed in the same manner with the solvent blank.
(§3) The treated plants and control plants were placed in a greenhouse as described above and watered by subirrigation to prevent wash-off of the test compounds. After 21 d, the condition of the test plants as compared with that of the untreated plants was determined visually and scored on a scale of 0 to 100 percent where 0 corresponds to no injury and 100 corresponds to complete kill.
(§4) By applying the well-accepted probit analysis as described by J. Berkson in Journal of the American Statistical Society, 48, 565 (1953) and by D. Finney in “Probit Analysis” Cambridge University Press (1952), herbicidal injury of a specific compound at various rates can be used to calculate GR20, GR50, GR80 and GR90 values, which are defined as growth reduction factors that correspond to the effective dose of herbicide required to provide plant growth reduction (GR) of 20 percent, 50 percent, 80 percent and 90 percent, respectively. Probit analysis was applied to data collected from multiple dose rates of individual compounds utilizing the procedures explained in the following examples. The analysis of those dose rates is captured in the following tables.

Test [2] deals with SETVI: green foxtail (Setaria viridis). Described as above. It is filed as in vivo. The settings on record: Table 9, 21 d; for pest or weed control at 35 g/ha: 35 g ai/ha; for pest or weed control at 70 g/ha: 70 g ai/ha; for GR50 SETVI: dose for 50 percent growth reduction; for GR50 SETVI / GR80 SETVI: probit analysis; for GR80 SETVI: dose for 80 percent growth reduction. As for the experimental part: as §1, §2, §3, §4

Experiment in test [3]: as above
It is filed as in vivo, Lolium multiflorum, Lolium rigidum. The note with it: Lolium multiflorum, post-emergence, 504 h, read-out: Visual Growth Reduction (%) 21 Days After Application LOLSS; for pest or weed control at 35 g/ha: 35 g ai/ha; for pest or weed control at 70 g/ha: 70 g ai/ha; for pest or weed control at 140 g/ha: 140 g ai/ha. As to the method:
as §1, §2, §3, §4

Test [4] deals with TRZSS: wheat, including spring and winter (Triticum aestivum). The description is as above. It is filed as in vivo. The settings on record: Table 9, 21 d; for GR20 TRZSS: dose for 20 percent growth reduction, probit analysis; for pest or weed control at 35 g/ha: 35 g ai/ha; for pest or weed control at 70 g/ha: 70 g ai/ha. As for the experimental part: as §1, §2, §3, §4
Test [5] deals with APESV: bentgrass (Apera spica-venti). Described as above. It is filed as in vivo. The note with it: for pest or weed control at 35 g/ha / pest or weed control at 70 g/ha / pest or weed control at 140 g/ha: Apera spica-venti, post-emergence, 504 h, read-out: Visual Growth Reduction (%) 21 Days After Application APESV; for pest or weed control at 35 g/ha: 35 g ai/ha; for pest or weed control at 70 g/ha: 70 g ai/ha; for pest or weed control at 140 g/ha: 140 g ai/ha; for GR50 APESV / GR80 APESV: probit analysis. As to the method:
as §1, §2, §3, §4

Test [6] concerns HORSS: barley, including spring and winter (Hordeum vulgare). The test is described as above. It is filed as in vivo. The note with it: Table 9, 21 d; for pest or weed control at 35 g/ha: 35 g ai/ha; for pest or weed control at 70 g/ha: 70 g ai/ha; for GR20 HORSS: dose for 20 percent growth reduction, probit analysis. As to the method: as §1, §2, §3, §4
Test [7] concerns KCHSC: kochia (Kochia scoparia). The test is described as above. It is filed as in vivo. The settings on record: for pest or weed control at 35 g/ha / pest or weed control at 70 g/ha / pest or weed control at 140 g/ha: Bassia scoparia, post-emergence, 504 h, read-out: Visual Growth Reduction (%) 21 Days After Application KCHSC; for pest or weed control at 35 g/ha: 35 g ai/ha; for pest or weed control at 70 g/ha: 70 g ai/ha; for pest or weed control at 140 g/ha: 140 g ai/ha; for GR50 KCHSC / GR80 KCHSC: probit analysis. As for the experimental part: as §1, §2, §3, §4

Test [8] relates to MATSS: scented mayweed (Matricaria chamomilla), pineappleweed (Matricaria matricarioides). Described as above. It is filed as in vivo. As to the method: as §1, §2, §3, §4
The mark [9] stands for this setting: Table 9, dose for 50 percent growth reduction, 21 d.
Where [10] appears, read: Table 9, dose for 80 percent growth reduction, 21 d.
[11] abbreviates: Setaria viridis, post-emergence, 504 h, post-emergent, read-out: Visual Growth Reduction (%) 21 Days After Application SETVI.
Setting [12] is: Triticum aestivum, post-emergence, 504 h, post-emergent, read-out: Visual Growth Reduction (%) 21 Days After Application TRZSS.
Setting [13] is: Hordeum vulgare, post-emergence, 504 h, post-emergent, read-out: Visual Growth Reduction (%) 21 Days After Application HORSS.
The mark [14] stands for this setting: dose for growth reduction of 50 percent, 21 days after application.
Where [15] appears, read: dose for growth reduction of 80 percent, 21 days after application.

Consider `COC(=O)c1nc(-c2ccc(Br)cc2)c(Cl)c(N)c1Cl` [Compound 47], for which, in test [1] (setting [9]), the “GR50 LOLSS” value is 80 g ai/ha. Moreover, the “GR80 LOLSS” value in test [1] (setting [10]) is reported as greater than 140 g ai/ha. For the same compound, the pest or weed control at 35 g/ha lay within 0 to 29% in test [2] (setting [11]); 0 to 29% in test [3] (Table 9, post-emergent, 21 d); 85 to 94% in test [4] (setting [12]); 95 to 100% in test [5] (Table 9, post-emergent, 21 d); 95 to 100% in test [6] (setting [13]); 85 to 94% in test [7] (Table 9, post-emergent, 21 d). In addition, the pest or weed control at 70 g/ha in test [2] (setting [11]) is 75 to 84%; in test [3] (Table 9, post-emergent, 21 d), 45 to 59%; in test [4] (setting [12]), 95 to 100%; in test [5] (Table 9, post-emergent, 21 d) it was 95 to 100%; in test [6] (setting [13]), 95 to 100%; in test [7] (Table 9, post-emergent, 21 d), 75 to 84%. In addition, the pest or weed control at 140 g/ha in test [2] (Setaria viridis, post-emergence, 504 h, 140 g ai/ha, post-emergent, read-out: Visual Growth Reduction (%) 21 Days After Application SETVI) lay in the range of 85 to 94%; in test [3] (Table 9, post-emergent, 21 d) it was 60 to 74%; in test [4] (Triticum aestivum, post-emergence, 504 h, 140 g ai/ha, post-emergent, read-out: Visual Growth Reduction (%) 21 Days After Application TRZSS), 95 to 100%; in test [5] (Table 9, post-emergent, 21 d), 95 to 100%; in test [6] (Hordeum vulgare, post-emergence, 504 h, 140 g ai/ha, post-emergent, read-out: Visual Growth Reduction (%) 21 Days After Application HORSS), 95 to 100%; in test [7] (Table 9, post-emergent, 21 d) it was 95 to 100%. For the same compound, in test [2], the “GR50 SETVI” value is recorded as 51 g ai/ha. For the same compound, in test [2], the “GR80 SETVI” value was 104 g ai/ha. Further, the “GR20 TRZSS” value in test [4] came to 1 g ai/ha. In addition, in test [5] (setting [9]), the “GR50 APESV” value is 10 g ai/ha. The “GR80 APESV” value in test [5] (setting [10]) amounted to 14 g ai/ha. Also, the “GR20 HORSS” value in test [6] turned out to be 1 g ai/ha. The “GR50 KCHSC” value in test [7] (setting [9]) was found to be 20 g ai/ha. Besides, in test [7] (setting [10]), the “GR80 KCHSC” value amounted to 45 g ai/ha.

Take `COC(=O)c1nc(-c2ccc(I)cc2F)cc(N)c1Cl` [Compound 159]: in test [1] (setting [9]), the “GR50 LOLSS” value was 36 g ai/ha. In addition, the “GR80 LOLSS” value in test [1] (setting [10]) is reported as 89 g ai/ha. Besides, the pest or weed control at 35 g/ha in test [2] (setting [11]) fell in the range of 45 to 59%; in test [3] (Table 9, post-emergent, 21 d) it was 45 to 59%; in test [4] (setting [12]), 85 to 94%; in test [5] (Table 9, post-emergent, 21 d), 85 to 94%; in test [6] (setting [13]) it was 85 to 94%; in test [7] (Table 9, post-emergent, 21 d), 85 to 94%. In addition, the pest or weed control at 70 g/ha was 60 to 74% in test [2] (setting [11]); 60 to 74% in test [3] (Table 9, post-emergent, 21 d); 95 to 100% in test [4] (setting [12]); 95 to 100% in test [5] (Table 9, post-emergent, 21 d); 95 to 100% in test [6] (setting [13]); 95 to 100% in test [7] (Table 9, post-emergent, 21 d). In addition, the “GR50 SETVI” value in test [2] is 43 g ai/ha. The “GR80 SETVI” value in test [2] was 113 g ai/ha. Besides, the “GR20 TRZSS” value in test [4] came out at 1 g ai/ha. Besides, in test [5] (setting [9]), the “GR50 APESV” value came out at 11 g ai/ha. Also, the “GR80 APESV” value in test [5] (setting [10]) is listed as 25 g ai/ha. In test [6], the “GR20 HORSS” value is recorded as 1 g ai/ha. In addition, the “GR50 KCHSC” value in test [7] (setting [9]) was found to be 4 g ai/ha. The “GR80 KCHSC” value in test [7] (setting [10]) worked out at 19 g ai/ha.

As for `C=Cc1c(C(=O)O)nc(-c2ccc(Cl)c(F)c2)c(F)c1N` [Compound 214], the “GR50 LOLSS” value in test [1] (setting [14]) is reported as 59 g ai/ha. Besides, the “GR80 LOLSS” value in test [1] (setting [15]) is recorded as greater than 140 g ai/ha. Besides, the pest or weed control at 35 g/ha in test [3] is 30 to 44%; in test [8] (Matricaria chamomilla, post-emergence, 504 h, 35 g ai/ha, read-out: Visual Growth Reduction (%) 21 Days After Application MATSS), 75 to 84%; in test [5] it was 0 to 29%; in test [7] it was 75 to 84%. Further, the pest or weed control at 70 g/ha was 45 to 59% in test [3]; 85 to 94% in test [8] (Matricaria chamomilla, post-emergence, 504 h, 70 g ai/ha, read-out: Visual Growth Reduction (%) 21 Days After Application MATSS); 30 to 44% in test [5]; 85 to 94% in test [7]. The pest or weed control at 140 g/ha lay within 85 to 94% in test [3]; 85 to 94% in test [8] (Matricaria chamomilla, post-emergence, 504 h, 140 g ai/ha, read-out: Visual Growth Reduction (%) 21 Days After Application MATSS); 45 to 59% in test [5]; 95 to 100% in test [7]. Besides, in test [8] (probit analysis, dose for growth reduction of 50 percent, 21 days after application), the “GR50 MATSS” value was 4 g ai/ha. Moreover, the “GR80 MATSS” value in test [8] (probit analysis, dose for growth reduction of 80 percent, 21 days after application) is reported as 41 g ai/ha. For the same compound, the “GR50 APESV” value in test [5] (setting [14]) turned out to be 110 g ai/ha. In test [5] (setting [15]), the “GR80 APESV” value is greater than 140 g ai/ha. Moreover, the “GR50 KCHSC” value in test [7] (setting [14]) is on record as 7 g ai/ha. Also, the “GR80 KCHSC” value in test [7] (setting [15]) is reported as 52 g ai/ha.

The record behind these values is patent US9113629B2, “4-amino-6-(4-substituted-phenyl)-picolinates and 6-amino-2-(4-substituted-phenyl)-pyrimidine-4-carboxylates and their use as herbicides” (DOW AGROSCIENCES LLC, priority 2013, dated 2015).
